We go through 2 compounds from US8470379B2, “Use of a potent product extracted from rhizomes of zingiber officinale in treating a disease associated with Helicobacter pylori” (Medical and Pharmaceutical Industry Technology and …, priority 2007, dated 2013).

Test [1] relates to Helicobacter pylori-induced gastric ulcer. Description: Helicobacter pylori-induced gastric ulcer in mice. Type of test: in vivo, male CD-1 (Crl.) derived mice. The note with it: 35 mg/kg orally for 7 days. On the procedure:
Effects of samples on Helicobacter pylori-induced gastric ulcer were evaluated as described previously [Marchetti, M., Arico, B., Burroni, D., Figura, N., Rappuoli, R. and Ghiara, P. Development of a mouse model of Helicobacter pylori infection that mimics human disease. Science 267: 1655-1658, 1995.]. Groups of 5 male CD-1 (Crl.) derived mice weighing 24±2 g were fasted for 18 hours prior to intragastric inoculation of clinical isolated Helicobacter pylori in suspension at 3.2×10^9 colony formation units/0.4 ml/mouse. Test samples and vehicle (2% CMC, 10 ml/kg) were each administered orally to test animals, starting one hour after the Helicobacter pylori inoculation, dosing twice daily (10:00 am and 4:00 pm) for 7 consecutive days. Omeprazole (1 mg/kg) and clarithromycin (10 mg/kg), in combination, were used for the positive control agents and administered orally to test animal once daily for 7 consecutive days under the same schedule. […] Gastric ulceration scored at four levels according to the degree of hemorrhage and severity of ulcerative lesions: • 0=normal appearance • 1=mild red spots • 2=moderate red spots and/or hemorrhage spots • 3=marked hemorrhage spots
Percentage inhibition on Helicobacter pylori-induced gastric ulcer was calculated as follows: (Scores of vehicle group−Scores of test group)/(Scores of vehicle group)×100% The results are shown in Table 3.

The test system of test [2] is Helicobacter pylori (ATCC 43504). As to the kind of experiment: Anti-microbial test: MIC by agar dilution method. Type of test: cell-based. The conditions noted are these: ATCC43504, Columbia agar + 7% rabbit blood, 35° C., 72 hours, microaerophilic, highest concentration 300 μg/ml, read-out: Minimum inhibitory concentration (MIC). As for the experimental part:
Minimum inhibitory concentration (MIC) of sample on Helicobacter pylori was determined by the agar dilution method [Malanosk G. J. et al. Effect of pH variation on the susceptibility of Helicobacter pylori to three marcolide antimicrobial agents and temafloxacin. Eur. J. Clin. Microbial Infect Dis. 12: pp. 131-133, 1993.]. The test substance was dissolved and serially diluted in DMSO to desired stock concentrations. For each concentration tested, a 0.01 ml aliquot is added to a 48-well plate containing 0.99 ml of Columbia agar base (Oxoid, England) supplemented 7% defibrinated rabbit blood. The inoculum of Helicobacter pylori (ATCC 43504) is prepared by suspending in brain heart infusion broth to a density of 5×10^5 CFU/ml. The final maximal concentration of DMSO is 1% and the initial test substance concentration is 300 μg/ml. The plates are incubated at 35° C. for 72 hours in the microaerophilic condition (Mixed gas N2 85%, CO2 10% and O2 5%) and then visually examined and scored positive (+) for inhibition of the colonies growth or negative (−) for no effect upon growth colonies. Vehicle-control and gentamicin are used as blank and positive controls, respectively. Each concentration is evaluated in duplicate.

Structures are written as SMILES.

Take `CCCCC[C@H](O)CC(=O)CCc1ccc(O)c(OC)c1` [Sample 6-Gingerol, 6-Gingerol]: the “Percentage inhibition on Helicobacter pylori-induced gastric ulcer” value in test [1] came out at 25%. The MIC in test [2] is 10 µg/mL.
`CCCCC/C=C/C(=O)CCc1ccc(O)c(OC)c1` [Shogaol]: in test [2], the MIC came out at 10 µg/mL.
